# Test results as given in patent US8314250B2, “Sultam derivatives” (Hoffmann-La Roche Inc., priority 2009, dated 2012).
# Counter-ions that a name gives are not always drawn.
# Test system: HeLa cells
# Assay: CellTiter-Glo luminescent cell viability (cytotoxicity) assay
# Assay type: cell-based
# Conditions: 10 μM test compound, 48 hours, inhibition of luminescence compared to control cells, 10 µM
# Description: Cytotoxicity was assessed using Promega's CellTiter-Glo® luminescent cell viability assay (Promega Corporation, Madison, Wis., USA) as described in Promega Technical Bulletin TB288, revised August 2008. The assay was performed in HeLa cells at a maximum concentration tested of 10 μM of test compound. This assay measures the amount of adenosine triphosphate (ATP) present as a way of quantifying the presence and degree of metabolic activity in cell cultures.
# Viable Hela cells were plated at a density of 3000 cells/well in 96 wells in black, clear bottom plates. Cells were allowed to attach to the plate by incubating overnight at 37° C. Test compounds were diluted in DMSO then further diluted in 10% FBS media. Media was removed from the cell plates and 50 μL of the solution was added to each well manually with the exception of the control well, which contained the same volume of 10% FBS media which includes 1% DMSO. Cells were incubated in the presence of compound undisturbed for 48 hours at 37° C. After the 48 hour compound exposure, 50 μL of the pCellTiter Glo® reagent was added. The cell plates were agitated on a shaker for 2 minutes to help lyse the cells. The plate was covered and read for luminescence.
# Percent inhibition was calculated as follows: PCT_INHIB=100*[(U−T)/U] Where U represents the Luminescence of wells containing untreated cells and
# T represents the Luminescence of wells containing compound-treated cells
row,SMILES,Activity (PCT_INHIB @ 10 μM) [%]
1,"COc1ccc(Cl)c(CN(Cc2cccc(CN3C(C(=O)NC45CC6CC(CC(C6)C4)C5)CCS3(=O)=O)c2)[C@H](CN(C)C)CC(C)(C)C)c1F (single isomer, unassigned; epimer 2) [Example 34]",97

# Same assay, conditions: Homo sapiens, HeLa, 48 h, 10 μM test compound, inhibition of luminescence compared to control cells, read-out: Activity (PCT_INHIB @ 10 μM)
row,SMILES,inhibition at 10 µM [%]
1,"C[C@@H]1[C@@H](NC(=O)C2CCS(=O)(=O)N2Cc2cccc(CN(Cc3ccccc3Oc3ccc(C#N)cc3)[C@H](CN(C)C)CC(C)(C)C)c2)C[C@H]2C[C@@H]1C2(C)C (stereo partly drawn) [Example 16, 2-(3-{[[2-(4-Cyano-phenoxy)-benzyl]-((S)-1-dimethylaminomethyl-3,3-dimethyl-butyl)-amino]-methyl}-benzyl)-1,1-dioxo-1λ^6-isothiazolidine-3-carboxylic acid((1S,2S,3S,5R)-2,6,6-trimethyl-bicyclo[3.1.1]hept-3-yl)-amide trifluoroacetate salt]",97
2,"COc1ccc(C(C)C)cc1CN(Cc1cccc(CN2C(C(=O)N[C@H]3C[C@H]4C[C@@H]([C@@H]3C)C4(C)C)CCS2(=O)=O)c1)[C@H](CN(C)C)CC(C)(C)C (stereo partly drawn) [Example 4, 2-(3-{[((S)-1-Dimethylaminomethyl-3,3-dimethyl-butyl)-(5-isopropyl-2-methoxy-benzyl)-amino]-methyl}-benzyl)-1,1-1λ^6-isothiazolidine-3-carboxylic acid((1S,2S,3S,5R)-2,6,6-trimethyl-bicyclo[3.1.1]hept-3-yl)-amide trifluoroacetate salt]",96
3,"C[C@@H]1[C@@H](NC(=O)C2CCS(=O)(=O)N2Cc2cccc(CN(Cc3ccccc3Oc3ccc(F)cc3)[C@H](CN(C)C)CC(C)(C)C)c2)C[C@H]2C[C@@H]1C2(C)C (stereo partly drawn) [Example 6, 2-[3-({((S)-1-Dimethylaminomethyl-3,3-dimethyl-butyl)-[2-(4-fluoro-phenoxy)-benzyl]-amino}-methyl)-benzyl]-1,1-dioxo-1λ^6-isothiazolidine-3-carboxylic acid((1S,2S,3S,5R)-2,6,6-trimethyl-bicyclo[3.1.1]hept-3-yl)-amide trifluoroacetate salt]",82
4,"C[C@@H]1[C@@H](NC(=O)C2CCS(=O)(=O)N2Cc2cccc(CN(Cc3ccccc3OC(F)F)[C@H](CN(C)C)CC(C)(C)C)c2)C[C@H]2C[C@@H]1C2(C)C (stereo partly drawn) [Example 5, 2-(3-{[(2-Difluoromethoxy-benzyl)-((S)-1-dimethylaminomethyl-3,3-dimethyl-butyl)amino]-methyl}-benzyl)-1,1-dioxo-1λ^6-isothiazolidine-3-carboxylic acid((1S,2S,3S,5R)-2,6,6-trimethyl-bicyclo[3.1.1]hept-3-yl)-amide trifluoroacetate salt]",87
5,"Cc1ccc(Oc2ccccc2CN(Cc2cccc(CN3C(C(=O)N[C@H]4C[C@H]5C[C@@H]([C@@H]4C)C5(C)C)CCS3(=O)=O)c2)[C@H](CN(C)C)CC(C)(C)C)cc1 (stereo partly drawn) [Example 7, 2-(3-{[((S)-1-Dimethylaminomethyl-3,3-dimethyl-butyl)-(2-p-tolyloxy-benzyl)-amino]-methyl}-benzyl)-1,1-dioxo-1λ^6-isothiazolidine-3-carboxylic acid((1S,2S,3S,5R)-2,6,6-trimethyl-bicyclo[3.1.1]hept-3-yl)-amide trifluoroacetate salt]",58
6,"CCOc1ccccc1CN(Cc1cccc(CN2C(C(=O)N[C@H]3C[C@H]4C[C@@H]([C@@H]3C)C4(C)C)CCS2(=O)=O)c1)[C@H](CN(C)C)CC(C)(C)C (stereo partly drawn) [Example 3, 2-(3-{[((S)-1-Dimethylaminomethyl-3,3-dimethyl-butyl)-(2-ethoxy-benzyl)-amino]methyl}-benzyl)-1,1-dioxo-1λ^6-isothiazolidine-3-carboxylic acid((1S,2S,3S,5R)-2,6,6-trimethyl-bicyclo[3.1.1]hept-3-yl)-amide trifluoroacetate salt]",69
7,"C[C@@H]1[C@@H](NC(=O)C2CCS(=O)(=O)N2Cc2cccc(CN(Cc3ccccc3-c3ccc(F)cc3)[C@H](CN(C)C)CC(C)(C)C)c2)C[C@H]2C[C@@H]1C2(C)C (stereo partly drawn) [Example 8, 2-(3-{[((S)-1-Dimethylaminomethyl-3,3-dimethyl-butyl)-(4′-fluoro-biphenyl-2 ylmethyl)-amino]-methyl}-benzyl)-1,1-dioxo-1λ^6-isothiazolidine-3-carboxylic acid((1S,2S,3S,5R)-2,6,6-trimethyl-bicyclo[3.1.1]hept-3-yl)-amide trifluoroacetate salt]",97
8,"COc1ccc(Cl)c(CN(Cc2cccc(CN3C(C(=O)N[C@H]4C[C@H]5C[C@@H]([C@@H]4C)C5(C)C)CCS3(=O)=O)c2)[C@@H](Cc2cccc(Cl)c2)CN(C)C)c1F (stereo partly drawn) [Example 22, 2-[3-({(6-Chloro-2-fluoro-3-methoxy-benzyl)-[(S)-2-(3-chloro-phenyl)-1-dimethylaminomethyl-ethyl]-amino}-methyl)-benzyl]-1,1-dioxo-1λ^6-isothiazolidine-3-carboxylic acid((1S,2S,3S,5R)-2,6,6-trimethyl-bicyclo[3.1.1]hept-3-yl)-amide]",93
9,"C[C@@H]1[C@@H](NC(=O)C2CCS(=O)(=O)N2Cc2cccc(CN(Cc3ccccc3I)[C@H](CN(C)C)CC(C)(C)C)c2)C[C@H]2C[C@@H]1C2(C)C (stereo partly drawn) [Example 2, 2-(3-{[((S)-1-Dimethylaminomethyl-3,3-dimethyl-butyl)-(2-iodo-benzyl)-amino]-methyl}-benzyl)-1,1-dioxo-1λ^6-isothiazolidine-3-carboxylic acid((1S,2S,3S,5R)-2,6,6-trimethyl-bicyclo[3.1.1]hept-3-yl)-amide trifluoroacetate salt]",50
10,"C[C@@H]1[C@@H](NC(=O)C2CCS(=O)(=O)N2Cc2cccc(CN(Cc3cccc4c3OCO4)[C@H](CN(C)C)CC(C)(C)C)c2)C[C@H]2C[C@@H]1C2(C)C (stereo partly drawn) [Example 17, 2-(3-{[Benzo[1,3]dioxol-4-ylmethyl-((S)-1-dimethylaminomethyl-3,3-dimethyl-butyl)-amino]-methyl}-benzyl)-1,1-dioxo-1λ^6-isothiazolidine-3-carboxylic acid((1S,2S,3S,5R)-2,6,6-trimethyl-bicyclo[3.1.1]hept-3-yl)-amide trifluoroacetate salt]",96
11,"C[C@@H]1[C@@H](NC(=O)C2CCS(=O)(=O)N2Cc2cccc(CN(Cc3c(F)cccc3Oc3ccccc3)[C@H](CN(C)C)CC(C)(C)C)c2)C[C@H]2C[C@@H]1C2(C)C (stereo partly drawn) [Example 12, 2-(3-{[((S)-1-Dimethylaminomethyl-3,3-dimethyl-butyl)-(2-fluoro-6-phenoxy-benzyl)-amino]-methyl}-benzyl)-1,1-dioxo-1λ^6-isothiazolidine-3-carboxylic acid((1S,2S,3S,5R)-2,6,6-trimethyl-bicyclo[3.1.1]hept-3-yl)-amide trifluoroacetate salt]",96
12,"Cc1ccc(CN(Cc2cccc(CN3C(C(=O)N[C@H]4C[C@H]5C[C@@H]([C@@H]4C)C5(C)C)CCS3(=O)=O)c2)[C@H](CN(C)C)CC(C)(C)C)c(O)c1 (stereo partly drawn) [Example 9, 2-(3-{[((S)-1-Dimethylaminomethyl-3,3-dimethyl-butyl)-(2-hydroxy-4-methylbenzyl)-amino]-methyl}-benzyl)-1,1-dioxo-1λ^6-isothiazolidine-3-carboxylic acid((1S,2S,3S,5R)-2,6,6-trimethyl-bicyclo[3.1.1]hept-3-yl)-amide trifluoroacetate salt]",96
13,"COc1ccc(Cl)c(CN(Cc2cccc(CN3C(C(=O)NCc4ccc(Cl)cc4)CCS3(=O)=O)c2)[C@H](CN(C)C)CC(C)(C)C)c1F (stereo partly drawn) [Example 27, 2-(3-{[(6-Chloro-2-fluoro-3-methoxy-benzyl)-((S)-1-dimethylaminomethyl-3,3-dimethyl-butyl)-amino]-methyl}-benzyl)-1,1-dioxo-1λ^6-isothiazolidine-3-carboxylic acid 4-chloro-benzylamide]",95
14,"COc1ccc(Cl)c(CN(Cc2cccc(CN3C(C(=O)NC45CC6CC(CC(C6)C4)C5)CCS3(=O)=O)c2)[C@H](CN(C)C)CC(C)(C)C)c1F (stereo partly drawn) [Example 20, 2-(3-{[(6-Chloro-2-fluoro-3-methoxy-benzyl)-((S)-1-dimethylaminomethyl-3,3-dimethyl-butyl)-amino]-methyl}-benzyl)-1,1-dioxo-1λ^6-isothizolidine-3-carboxylic acid adamantan-1-ylamide]",95
15,"Cc1ccc(O)c(CN(Cc2cccc(CN3C(C(=O)N[C@H]4C[C@H]5C[C@@H]([C@@H]4C)C5(C)C)CCS3(=O)=O)c2)[C@H](CN(C)C)CC(C)(C)C)c1 (stereo partly drawn) [Example 10, 2-(3-{[((S)-1-Dimethylaminomethyl-3,3-dimethyl-butyl)-(2-hydroxy-5-methyl-benzyl)-amino]-methyl}-benzyl)-1,1-dioxo-1λ^6-isothiazolidine-3-carboxylic acid((1S,2S,3S,5R)-2,6,6-trimethyl-bicyclo[3.1.1]hept-3-yl)-amide trifluoroacetate salt]",96
16,"COc1ccc(Cl)c(CN(Cc2cccc(CN3C(C(=O)N[C@H]4C[C@H]5C[C@@H]([C@@H]4C)C5(C)C)CCS3(=O)=O)c2)[C@@H](Cc2ccc(Cl)cc2)CN(C)C)c1F (stereo partly drawn) [Example 23, 2-[3-({(6-Chloro-2-fluoro-3-methoxy-benzyl)-[(S)-2-(4-chloro-phenyl)-1-dimethylaminomethyl-ethyl]-amino}-methyl)-benzyl]-1,1-dioxo-1λ^6-isothiazolidine-3-carboxylic acid((1S,2S,3S,5R)-2,6,6-trimethyl-bicyclo[3.1.1]hept-3-yl)-amide]",96
